Measured values taken from PMC11013252, “Exploration of the Antibacterial and Anti-Inflammatory Activity of a Novel Antimicrobial Peptide Brevinin-1BW” (Molecules, 2024).
In brackets after ≈: the same amount, converted by molar mass. Positions of bridges follow the written chain, without caps; N, C: chain ends. No end group written: not given here.

Experiments:
[1] = test system: S. aureus (MDR ATCC29213); assay: microbe, parasite or virus in culture; format: cell-based, Staphylococcus aureus; details: Staphylococcus aureus; S. aureus (MDR ATCC29213); CLSI two-fold dilution, MH medium, 1 × 10^6 CFU/mL, 37 °C, 18 h, OD600; 9 replicates of 3 independent experiments; read-out: MIC
Description: (§1) The minimum inhibitory concentration (MIC) of the Brevinin-1BW was measured in 96-well microtiter plates according to the Clinical and Laboratory Standards Institute (CLSI). The activated strains were treated with Mueller Hinton Agar (MHA) solid medium. Single colonies were picked and expanded to the logarithmic growth phase, and the solution was diluted to 2 × 10^6 CFU/mL using the McFarland turbidity standard. The MIC was determined with the two-fold dilution method. Briefly, 50 μL of Mueller Hinton (MH) medium was added to a 96-well plate in advance. Then, 50 μL of AMP solution was added to the first well, and 50 μL was pipetted into the next well after mixing using a row gun, while 50 μL was discarded from the last well. Final concentrations of Brevinin-1BW were 100, 50, 25, 12.5, 6.25, and 3.125 μg/mL. A 50 μL volume of the diluted bacterial solution was added, and the final concentration of the bacterial solution was 1 × 10^6 CFU/mL. This was then placed into a 37 °C incubator for 18 h until the next day to observe the degree of turbidity of the 96-well plate and measure the absorbance of the wells at 600 nm with a multifunctional microplate reader (SpectraMax iD5, Molecular Devices, Sunnyvale, CA, USA). The absence of turbidity and the measured concentration of absorbance being less than the opposing group was taken as the MIC. The positive control used ampicillin at the same final concentration as Brevinin-1BW, the negative control used 50 μL of MH medium mixed with 50 μL of 2 × 10^6 CFU/mL bacterial solution, and the blank contained only 100 μL of MH medium. Three replicate wells were set up for each experiment, and each experiment was repeated three times. The MIC and all concentrations above the MIC of bacterial solution coated on MHA solid medium were placed into 37 °C incubator incubation for 18 h. The lowest concentration resulting in no colony growth was taken as the minimum bactericidal concentration (MBC).

S. aureus (ATCC25923) = assay: microbe, parasite or virus in culture; format: cell-based, Staphylococcus aureus; details: Staphylococcus aureus; S. aureus (ATCC25923); CLSI two-fold dilution, MH medium, 1 × 10^6 CFU/mL, 37 °C, 18 h, OD600; 9 replicates of 3 independent experiments; read-out: MIC
Description: as §1

[2] = test system: S. haemolyticus (CI 1607BLD590); assay: microbe, parasite or virus in culture; format: cell-based, Staphylococcus haemolyticus; details: Staphylococcus haemolyticus; S. haemolyticus (CI 1607BLD590), clinical isolate; CLSI two-fold dilution, MH medium, 1 × 10^6 CFU/mL, 37 °C, 18 h, OD600; 9 replicates of 3 independent experiments; read-out: MIC
Description: as §1

[3] = test system: S. epidermidis (CI 1607BL1D39); assay: microbe, parasite or virus in culture; format: cell-based, Staphylococcus epidermidis; details: Staphylococcus epidermidis; S. epidermidis (CI 1607BL1D39), clinical isolate; CLSI two-fold dilution, MH medium, 1 × 10^6 CFU/mL, 37 °C, 18 h, OD600; 9 replicates of 3 independent experiments; read-out: MIC
Description: as §1

[4] = test system: S. saprophytics (ATCCBAA750); assay: microbe, parasite or virus in culture; format: cell-based, Staphylococcus saprophyticus; details: Staphylococcus saprophyticus; S. saprophytics (ATCCBAA750); CLSI two-fold dilution, MH medium, 1 × 10^6 CFU/mL, 37 °C, 18 h, OD600; 9 replicates of 3 independent experiments; read-out: MIC
Description: as §1

E. coli (ATCC25922) = assay: microbe, parasite or virus in culture; format: cell-based; details: Escherichia coli; E. coli (ATCC25922); CLSI two-fold dilution, MH medium, 1 × 10^6 CFU/mL, 37 °C, 18 h, OD600; 9 replicates of 3 independent experiments; read-out: MIC
Description: as §1

E. faecalis (ATCC29212) = assay: microbe, parasite or virus in culture; format: cell-based, Enterococcus faecalis; details: Enterococcus faecalis; E. faecalis (ATCC29212); CLSI two-fold dilution, MH medium, 1 × 10^6 CFU/mL, 37 °C, 18 h, OD600; 9 replicates of 3 independent experiments; read-out: MIC
Description: as §1

[5] = test system: P. aeruginosa (ATCC27853); assay: microbe, parasite or virus in culture; format: cell-based, Pseudomonas aeruginosa; details: Pseudomonas aeruginosa; P. aeruginosa (ATCC27853); CLSI two-fold dilution, MH medium, 1 × 10^6 CFU/mL, 37 °C, 18 h, OD600; 9 replicates of 3 independent experiments; read-out: MIC
Description: as §1

[6] = test system: E. hormaechei (ATCC700323); assay: microbe, parasite or virus in culture; format: cell-based, Enterobacter hormaechei; details: Enterobacter hormaechei; E. hormaechei (ATCC700323); CLSI two-fold dilution, MH medium, 1 × 10^6 CFU/mL, 37 °C, 18 h, OD600; 9 replicates of 3 independent experiments; read-out: MIC
Description: as §1

[7] = test system: C. koseri (CI 1611SED223); assay: microbe, parasite or virus in culture; format: cell-based, Citrobacter koseri; details: Citrobacter koseri; C. koseri (CI 1611SED223), clinical isolate; CLSI two-fold dilution, MH medium, 1 × 10^6 CFU/mL, 37 °C, 18 h, OD600; 9 replicates of 3 independent experiments; read-out: MIC
Description: as §1

[8] = test system: K. pneumoniae (ATCC700603); assay: microbe, parasite or virus in culture; format: cell-based, Klebsiella pneumoniae; details: Klebsiella pneumoniae; K. pneumoniae (ATCC700603); CLSI two-fold dilution, MH medium, 1 × 10^6 CFU/mL, 37 °C, 18 h, OD600; 9 replicates of 3 independent experiments; read-out: MIC
Description: as §1

E. coli (MDR ATCC35218) = assay: microbe, parasite or virus in culture; format: cell-based, Escherichia coli; details: Escherichia coli; E. coli (MDR ATCC35218); CLSI two-fold dilution, MH medium, 1 × 10^6 CFU/mL, 37 °C, 18 h, OD600; 9 replicates of 3 independent experiments; read-out: MIC
Description: as §1

MRSA/MDR S. aureus = details: ref [44],[45],[46],[47]; cited from earlier work
Excerpt: Table 5 Comparison of MICs of Brevinin-1BW and related AMPs congeners against specific microorganisms. | column: MIC (µM) / MRSA/MDR S. aureus

S. aureus = details: ref [44],[45],[46],[47]; cited from earlier work
Excerpt: Table 5 Comparison of MICs of Brevinin-1BW and related AMPs congeners against specific microorganisms. | column: MIC (µM) / S. aureus

E. faecalis = details: ref [44],[45],[46],[47]; cited from earlier work
Excerpt: Table 5 Comparison of MICs of Brevinin-1BW and related AMPs congeners against specific microorganisms. | column: MIC (µM) / E. faecalis

Which MIC [1] does the source give for `CC1(C)S[C@@H]2[C@H](NC(=O)[C@H](N)c3ccccc3)C(=O)N2[C@H]1C(=O)O` [Ampicillin, reference compound] here?
Its MIC is greater than 100 µg/mL.

What about the MIC (S. aureus (ATCC25923)) of the same compound?
Its MIC is 3.12 µg/mL (≈ 8.94 µM).

What about the MIC [2] of the same compound?
Its MIC is greater than 100 µg/mL.

And the MIC [3]?
Its MIC is 3.12 µg/mL (≈ 8.94 µM).

What about the MIC [4] of the same compound?
Its MIC is 3.12 µg/mL (≈ 8.94 µM).

And the MIC (E. coli (ATCC25922))?
The MIC was 100 µg/mL (≈ 286 µM).

What about the MIC (E. faecalis (ATCC29212)) of the same compound?
The MIC was 3.12 µg/mL (≈ 8.94 µM).

And the MIC [5]?
Its MIC is greater than 100 µg/mL.

And the MIC [6]?
Its MIC is greater than 100 µg/mL.

What about the MIC [7] of the same compound?
The MIC was greater than 100 µg/mL.

What about the MIC [8] of the same compound?
Its MIC is greater than 100 µg/mL.

What about the MIC (E. coli (MDR ATCC35218)) of the same compound?
Its MIC is greater than 100 µg/mL.

With “FLGALFKVASKLVPAAICSISKKC (disulfide 18-24 (inferred)) [Brevinin-1GHd, related Brevinin-1 family AMP from publications]” as the compound, how does the MIC (MRSA/MDR S. aureus) read?
The MIC was 4 µM.

And the MIC (S. aureus)?
The MIC was 2 µM.

Which MIC (MRSA/MDR S. aureus) does the source give for “FLGAVLKVAGKLVPAAICKISKKC (disulfide 18-24 (inferred)) [Brevinin-1GHa, related Brevinin-1 family AMP from publications]” here?
The MIC was 4 µM.

What about the MIC (E. faecalis) of the same compound?
Its MIC is 8 µM.

And the MIC (S. aureus)?
Its MIC is 2 µM.

For “FLGSIVGALASALPSLISKIRN [Brevinin1TSa, related Brevinin-1 family AMP from publications]”, which MIC (MRSA/MDR S. aureus) is on record?
The MIC was 25 µM.

And the MIC (E. faecalis)?
The MIC was 50 µM.

What about the MIC (S. aureus) of the same compound?
The MIC was 25 µM.

With “FLPAVIRVAANVLPTVFCAISKKC (disulfide 18-24 (inferred)) [Brevinin-1JDa, related Brevinin-1 family AMP from publications]” as the compound, how does the MIC (MRSA/MDR S. aureus) read?
Its MIC is 13 µM.

What about the MIC (S. aureus) of the same compound?
The MIC was 6 µM.

What does the source list for “FLPAVLRVAAKVVPTVFCLISKKC (disulfide 18-24 (inferred)) [Brevinin-1JDc, related Brevinin-1 family AMP from publications]”?
MIC (MRSA/MDR S. aureus): 3 µM; MIC (S. aureus): 6 µM

What does the source list for “FLPGVLRLVTKVGPAVVCAITRNC (disulfide 18-24 (inferred)) [Brevinin-1ISa, related Brevinin-1 family AMP from publications]”?
MIC (MRSA/MDR S. aureus): 3.1 µM; MIC (S. aureus): 3.1 µM
